Numbers after ± are expanded uncertainties.
Conditions: Liquid; for mass density: 298.15 K, 101.33 kPa

SMILES | mass density [kg/m3] | other results
C1COCO1 [1,3-dioxolane] | 1059 ± 0.9 | vapor or sublimation pressure (348.8 K): 101.33 ± 2 kPa
C1COCCO1 [1,4-dioxane] | 1027.9 ± 0.7 | vapor or sublimation pressure (374.47 K): 101.33 ± 2 kPa
CCCCCCCl [1-chlorohexane] | 873.5 ± 1 | vapor or sublimation pressure (408.07 K): 101.33 ± 2 kPa
C1CCOC1 [tetrahydrofuran] | 882 ± 0.5 | vapor or sublimation pressure (339.12 K): 101.33 ± 2 kPa
C1CCOCC1 [tetrahydropyran] | 878.8 ± 1 | vapor or sublimation pressure (361.23 K): 101.33 ± 2 kPa

Source: the NIST ThermoML archive (doi:10.1016/j.fluid.2007.05.013)
